Source: patent US10273503B2, “Compounds and methods for enhancing viral gene transfer to human hematopoietic cells” (UNIVERSTÉ DE MONTRÉAL, priority 2015, dated 2019)

These molecules were tested on human CD34+ cells (assay: Expansion of human CD34+ cells (EC50, CD34+CD45RA- cell count)). Conditions: Homo sapiens, concentration that results in a 50% increase in CD34+CD45RA- cell count compared to vehicle cultures (DMSO); read-out: Biological data (EC50)*.
Type: cell-based

Row | EC50 [nM] | SMILES
1 | 500 to 1000 | COC(=O)c1cnc2c(c1)[nH]c1nc(Cc3ccccc3)nc(NCC(C)CN(C)C)c12 (stereo not drawn) [Cmpd 73]
2 | 100 to 250 | COC(=O)c1ccc2c(c1)[nH]c1nc(Cc3ccc4ccccc4c3)nc(NCCCN3CCCCC3)c12 [Cmpd 27]
3 | 250 to 500 | COC(=O)c1ccc2c(c1)[nH]c1ncnc(NCCC3CCNCC3)c12 [Cmpd 18]
4 | > 1000 | CNC(=O)c1ccc2c(c1)[nH]c1nc(Cc3ccccc3)nc(NCCCN3CCCCC3)c12 [Cmpd 59]
5 | < 100 | C#CCOC(CNc1nc(Cc2ccccc2)nc2[nH]c3cc(C(=O)OC)ccc3c12)CN1CCCCC1 (stereo not drawn) [Cmpd 52]
6 | < 100 | COC(=O)c1ccc2c(c1)[nH]c1nc(Cc3cccc(C(=O)C(F)(F)F)c3)nc(NCCCN3CCCCC3)c12 [Cmpd 39]
7 | > 1000 | COC(=O)c1cnc2c(c1)[nH]c1nc(Cc3cccc(F)c3)nc(NCCCN3CCCCC3)c12 [Cmpd 70]
8 | 500 to 1000 | CCN(CC)CCNc1nc(Cc2cccc(OC)c2)nc2[nH]c3cc(C(=O)OC)cnc3c12 [Cmpd 64]
9 | 100 to 250 | COC(=O)c1ccc2c(c1)[nH]c1cc(Cc3ccsc3)nc(N[C@H]3CC[C@H](N)CC3)c12 [Cmpd 88]
10 | 100 to 250 | Cn1nnc(-c2ccc3c(c2)[nH]c2ncnc(NCCCN4CCCCC4)c23)n1 [Cmpd 21]
11 | 500 to 1000 | COC(=O)c1cnc2c(c1)[nH]c1nc(Cc3ccsc3)nc(SCCCN3CCCCC3)c12 [Cmpd 62]
12 | 250 to 500 | Cn1nnc(-c2cnc3c(c2)[nH]c2nc(Cc4ccccc4)nc(N[C@H]4CC[C@H](N)CC4)c23)n1 [Cmpd 69]
13 | < 100 | COC(=O)c1ccc2c(c1)[nH]c1cc(Cc3cccc(OC)c3)nc(NCCCCN3CCCC3)c12 [Cmpd 81]
14 | 250 to 500 | COC(=O)c1ccc2c(c1)[nH]c1ncnc(NCCCCN(C)C)c12 [Cmpd 10]
15 | < 100 | COC(=O)c1ccc2c(c1)[nH]c1cc(Cc3ccccc3)nc(N(C)CCCN(C)C)c12 [Cmpd 79]
16 | 100 to 250 | Cn1nnc(-c2ccc3c(c2)[nH]c2cc(Cc4ccccc4)nc(NCCCN4CCCCC4)c23)n1 [Cmpd 80]
17 | < 100 | COC(=O)c1ccc2c(c1)[nH]c1nc(C(C)c3ccccc3)nc(NCCCN3CCCCC3)c12 (stereo not drawn) [Cmpd 31]
18 | < 100 | COC(=O)c1ccc2c(c1)[nH]c1nc(Cc3ccc(C)cc3)nc(NCCCN3CCCCC3)c12 [Cmpd 37]
19 | < 100 | COC(=O)c1ccc2c(c1)[nH]c1cc(Cc3ccccc3)nc(NCCN3CCCC3)c12 [Cmpd 78]
20 | < 100 | COC(=O)c1ccc2c(c1)[nH]c1nc(Cc3cccc(C4(C(F)(F)F)N=N4)c3)nc(NCCCN3CCCCC3)c12 [Cmpd 32]
21 | < 100 | COC(=O)c1ccc2c(c1)[nH]c1nc(Cc3ccccc3)nc(NCCCN(C)CCCN)c12 [Cmpd 50]
22 | < 100 | CN(C)C1CCC(Nc2nc(Cc3ccccc3)nc3[nH]c4cc(-c5nnn(C)n5)ccc4c23)CC1 (stereo not drawn) [Cmpd 46]
23 | < 100 | COC(=O)c1ccc2c(c1)[nH]c1nc(Cc3cccc(Br)c3)nc(NCCCN3CCCCC3)c12 [Cmpd 35]

Row | EC50 [nM] | SMILES
24 | < 100 | Cn1nnc(-c2ccc3c(c2)[nH]c2nc(Cc4ccccc4)nc(NCCCN4CCCCC4)c23)n1 [Cmpd 41]
25 | 500 to 1000 | COC(=O)c1ccc2c(c1)[nH]c1ncnc(NCCCN(C)C)c12 [Cmpd 12]
26 | < 100 | COC(=O)c1ccc2c(c1)[nH]c1nc(Cc3ccccc3)nc(NCC(O)CN3CCCCC3)c12 (stereo not drawn) [Cmpd 51]
27 | 250 to 500 | COC(=O)c1cnc2c(c1)[nH]c1nc(Cc3ccsc3)nc(NCCCN3CCCCC3)c12 [Cmpd 61]
28 | < 100 | COC(=O)c1ccc2c(c1)[nH]c1cc(Cc3ccccc3)nc(NCCCN3CCCCC3)c12 [Cmpd 77]
29 | > 1000 | COC(=O)c1ccc2c(c1)[nH]c1cc(Cc3ccsc3)nc(NCCN(C)CCNC(=O)OC(C)(C)C)c12 [Cmpd 83]
30 | 500 to 1000 | COC(=O)c1ccc2c(c1)[nH]c1ncnc(NC3CCNCC3)c12 [Cmpd 17]
31 | 100 to 250 | COC(=O)c1ccc2c(c1)[nH]c1cc(Cc3ccsc3)nc(NCCCN3CCCCC3)c12 [Cmpd 85]
32 | 250 to 500 | COC(=O)c1ccc2c(c1)[nH]c1nc(Cc3ccncc3)nc(NCCCN3CCCCC3)c12 [Cmpd 23]
33 | 250 to 500 | COC(=O)c1ccc2c(c1)[nH]c1ncnc(NCCCN)c12 [Cmpd 15]
34 | > 1000 | COC(=O)c1ccc2c(c1)[nH]c1ncnc(NCCCN3CCOCC3)c12 [Cmpd 19]
35 | < 100 | COC(=O)c1ccc2c(c1)[nH]c1nc(Cc3ccccc3)nc(NCCCN(C)CCOCCOCCO)c12 [Cmpd 49]
36 | > 1000 | CCN(CCCN1CCCCC1)c1nc(Cc2ccccc2)nc2[nH]c3cc(C(=O)OC)ccc3c12 [Cmpd 53]
37 | 100 to 250 | COC(=O)c1ccc2c(c1)[nH]c1ncnc(NCCCN3CCCCC3C)c12 (stereo not drawn) [Cmpd 14]
38 | > 1000 | CNCCCN(C)c1nc(Cc2cccnc2)cc2[nH]c3cc(C(=O)OC)ccc3c12 [Cmpd 87]
39 | < 100 | COC(=O)c1ccc2c(c1)[nH]c1nc(Cc3cccnc3)nc(NCCCN3CCCCC3)c12 [Cmpd 22]
40 | 250 to 500 | CCN(CC)CCN(CC)c1nc(Cc2ccccc2)nc2[nH]c3cc(C(=O)OC)cnc3c12 [Cmpd 75]
41 | > 1000 | COC(=O)c1ccc2c(c1)[nH]c1nc(C)nc(NCCCN3CCCCC3)c12 [Cmpd 58]
42 | 100 to 250 | COC(=O)c1cnc2c(c1)[nH]c1nc(Cc3ccccc3)nc(N3CCC(N(C)C)CC3)c12 [Cmpd 74]
43 | 100 to 250 | COC(=O)c1ccc2c(c1)[nH]c1ncnc(NCCN(C)C)c12 [Cmpd 11]
44 | > 1000 | CNCCCNc1nc(Cc2cccc(F)c2)nc2[nH]c3cc(C(=O)OC)cnc3c12 [Cmpd 72]
45 | 250 to 500 | COC(=O)c1cnc2c(c1)[nH]c1nc(Cc3cccc(F)c3)nc(NCCCN(C)CCCN)c12 [Cmpd 71]
46 | 100 to 250 | COC(=O)c1ccc2c(c1)[nH]c1ncnc(NCCCN3CCCC3)c12 [Cmpd 9]

Row | EC50 [nM] | SMILES
47 | > 1000 | COC(=O)c1ccc2c(c1)[nH]c1ccnc(NCCCN3CCCCC3)c12 [Cmpd 76]
48 | 500 to 1000 | COC(=O)c1ccc2c(c1)[nH]c1nc(Cc3cnccn3)nc(NCCCN3CCCCC3)c12 [Cmpd 24]
49 | > 1000 | COC(=O)c1ccc2c(c1)[nH]c1cc(Cc3cccnc3)nc(N3CCC(N4CCCC4)CC3)c12 [Cmpd 86]
50 | 500 to 1000 | COC(=O)c1ccc2c(c1)[nH]c1nc(Cc3ccccc3)nc(OCCCN3CCCCC3)c12 [Cmpd 47]
51 | 250 to 500 | COC(=O)c1ccc2c(c1)[nH]c1cc(Cc3ccsc3)nc(NCCN(C)CCN)c12 [Cmpd 89]
52 | 250 to 500 | COC(=O)c1ccc2c(c1)[nH]c1nc(Cc3ccccc3)nc(NCCCN(C)CCCNC(=O)CCCC[C@@H]3SC[C@@H]4NC(=O)N[C@@H]43)c12 [Cmpd 56]
53 | < 100 | COC(=O)c1ccc2c(c1)[nH]c1nc(Cc3ccsc3)nc(NCCCN3CCCCC3)c12 [Cmpd 25]
54 | 250 to 500 | COC(=O)c1ccc2c(c1)[nH]c1ncnc(NCC(O)CN3CCCCC3)c12 (stereo not drawn) [Cmpd 16]
55 | 250 to 500 | COC(=O)c1ccc2c(c1)[nH]c1ncnc(NCCN3CCCCC3)c12 [Cmpd 13]
56 | < 100 | COC(=O)c1ccc2c(c1)[nH]c1cc(Cc3cccc(O)c3)nc(NCCCCN3CCCC3)c12 [Cmpd 82]
57 | 250 to 500 | COC(=O)c1cnc2c(c1)[nH]c1nc(Cc3ccccc3C)nc(NCCCN3CCCC3)c12 [Cmpd 67]
58 | 100 to 250 | COC(=O)c1ccc2c(c1)[nH]c1ncnc(N3CCC(N4CCCCC4)CC3)c12 [Cmpd 20]
59 | 250 to 500 | COC(=O)c1cnc2c(c1)[nH]c1nc(Cc3ccccc3C)nc(NCCCN3CCCCC3)c12 [Cmpd 66]
60 | 250 to 500 | COC(=O)c1ccc2c(c1)[nH]c1ncnc(NCCCN3CCCCC3)c12 [Cmpd 2]
61 | 250 to 500 | COC(=O)c1cnc2c(c1)[nH]c1nc(Cc3ccccc3)nc(NCCCN3CCCCC3)c12 [Cmpd 60]
62 | 250 to 500 | N#Cc1ccc2c(c1)[nH]c1nc(Cc3ccccc3)nc(NCCCN3CCCCC3)c12 [Cmpd 43]
63 | < 100 | COC(=O)c1ccc2c(c1)[nH]c1nc(Cc3ccccc3C)nc(NCCCN3CCCCC3)c12 [Cmpd 36]
64 | 250 to 500 | COC(=O)c1cnc2c(c1)[nH]c1nc(Cc3cccc(OC)c3)nc(NCCCN3CCCCC3C)c12 (stereo not drawn) [Cmpd 63]
65 | < 100 | COC(=O)c1ccc2c(c1)[nH]c1nc(Cc3cc(Br)cc(I)c3)nc(NCCCN3CCCCC3)c12 [Cmpd 26]
66 | < 100 | COC(=O)c1ccc2c(c1)[nH]c1nc(Cc3ccccc3)nc(NCCCN3CCCCC3)c12 [Cmpd 34]
67 | < 100 | COC(=O)c1ccc2c(c1)[nH]c1nc(Cc3cccc(OC)c3)nc(NCCCN3CCCCC3)c12 [Cmpd 38]
68 | < 100 | COC(=O)c1cnc2c(c1)[nH]c1nc(Cc3ccccc3)nc(N(C)CCCN3CCCCC3)c12 [Cmpd 65]
69 | 500 to 1000 | COC(=O)c1ccc2c(c1)[nH]c1cc(Cc3cccnc3)nc(NCCCN3CCOCC3)c12 [Cmpd 84]

Same assay, conditions: concentration that results in a 50% increase in CD34+CD45RA- cell count compared to vehicle cultures (DMSO)

Row | SMILES | Biological data (EC50)*
70 | COC(=O)c1ccc2c(c1)[nH]c1nc(C(=O)c3ccccc3)nc(NCCCN3CCCCC3)c12 [Cmpd 30] | F (F = compound showed >1.3 fold expansion)
71 | COC(=O)c1ccc2c(c1)[nH]c1nc(Cc3cccc(C4(C(F)(F)F)N=N4)c3)nc(NCCCN(C)CCCNC(=O)CCCCC3SCC4NC(=O)NC43)c12 (stereo not drawn) [Cmpd 57] | F (F = compound showed >1.3 fold expansion)
72 | C#CCNCCCN(C)CCCNc1nc(Cc2ccccc2)nc2[nH]c3cc(C(=O)OC)ccc3c12 [Cmpd 54] | F (F = compound showed >1.3 fold expansion)
73 | COC(=O)c1ccc2c(c1)[nH]c1nc(C(O)c3ccccc3)nc(NCCCN3CCCCC3)c12 (stereo not drawn) [Cmpd 29] | F (F = compound showed >1.3 fold expansion)
74 | Cc1noc(-c2ccc3c(c2)[nH]c2nc(Cc4ccccc4)nc(NCCCN4CCCCC4)c23)n1.Cl [Cmpd 42] | F (F = compound showed >1.3 fold expansion)
75 | CCOC(=O)c1ccc2c(c1)[nH]c1nc(Cc3ccccc3)nc(NCCCN3CCCCC3)c12 [Cmpd 33] | F (F = compound showed >1.3 fold expansion)
76 | COC(=O)c1ccc2c(c1)[nH]c1nc(Cc3ccccc3)nc(CCCCN3CCCCC3)c12 [Cmpd 48] | F (F = compound showed >1.3 fold expansion)

Same assay, conditions: concentration that results in a 50% increase in CD34+CD45RA- cell count compared to vehicle cultures (DMSO); read-out: Biological data (EC50)*

Row | EC50 [nM] | SMILES
77 | 250 to 500 | COC(=O)c1ccc2c(c1)[nH]c1ncnc(NC3CCC(N)CC3)c12 (stereo not drawn) [Cmpd 45]
78 | 100 to 250 | COC(=O)c1ccc2c(c1)[nH]c1ncnc(NC3CCC(N)CC3)c12 (stereo not drawn) [Cmpd 44]
